# Read-outs that look alike come from different tables or passages of the source.
# Tests used:
# PKC α = biological target: T1, PKC α (Homo sapiens, UniProt P17252); assay: PKC enzyme assay (BIOTRAK Protein kinase C enzyme assay system, 32P-ATP phosphorylation of peptide […]); format: biochemical; details: Protein Kinase C, Human Recombinant; test substance 1 nM-10 µM; 37°C, 15 minutes; read-out: Inhibition of PKC activity IC50 PKC α
# T1 construct: purchased CALBIOCHEM
# Method: (§1) As the reagent for enzyme assay, BIOTRAK Protein kinase C enzyme assay system (hereinafter the system, Amersham), and as the PKC enzyme standard product, Protein Kinase C, Human Recombinant (CALBIOCHEM) were purchased and used in the assay. A substrate mixture was prepared by mixing calcium buffer (12 mM calcium acetate, 50 mM Tris/HCl pH 7.5, 0.05% (w/v) sodium azide), Lipid (0.3 mg/ml La-phosphatidyl-L-serine, […] phorbol 12-myristate 13-acetate, 50 mM Tris/HCl pH 7.5, 0.05% (w/v) sodium azide), peptide buffer (900 µM peptide […]), 50 mM Tris/HCl pH 7.5, 0.05% (w/v) sodium azide), DTT buffer (30 mM dithiothreitol, 50 mM Tris/HCl pH 7.5, 0.05% (w/v) sodium azide), and magnesium ATP buffer (1.2 mM ATP, […] pH 7.4, 72 mM magnesium chloride) all attached to the system in a ratio of 1:1:1:1:0.8 and adding [ y -32P]ATP (Amersham, cat. […] The PKC enzyme standard product was diluted with an assay buffer (10 mM Hepes pH 7.4, 0.01% Triton X-100) to a concentration of 400 ng/ml and used as the enzyme solution. The substrate mixture and a test substance (diluted to the final concentration of 1 nM-10 µM with dimethyl sulfoxide (DMSO)) were mixed at a ratio of 20:1. The enzyme solution was added in the amount equivalent to the substrate mixture and mixed, which was followed by incubation at 37°C for 15 minutes. The reaction terminator (300 mM orthophosphoric acid containing carmosine red) attached to the system was added in the amount equivalent to the substrate mixture to end the reaction, and the reaction mixture was spotted on a phosphocellulose paper (Whatman, P-81), washed twice with 75 mM orthophosphoric acid and assayed for radioactivity by BAS2000 (Fuji film).
# (§2) The ratio of the radioactivity of the addition of the test substance to the addition of DMSO was determined, and IC50 was calculated from inhibition at each concentration.
# PKC β II = biological target: T2, PKC β II (Homo sapiens, UniProt P05771); assay: as above; format: biochemical; details: for Ratio α/β: IC50 PKC α / IC50 PKC β II
# T2 construct: purchased CALBIOCHEM
# Source text: The method for determining the PKC inhibitory activity of the compound of the present invention is explained in the following. Inasmuch as PKCβII is present in greater number in intravascular cells than PKCβI, PKCβII was mainly used here to test the enzyme activity.
# as §1, §2
# [1] = Protein Kinase C, Human Recombinant, test substance 1 nM-10 µM, 37°C, 15 minutes, read-out: Inhibition of PKC activity IC50 PKC β II
# T2 sequence (P05771 other isoform, or with tags, fused parts or gaps): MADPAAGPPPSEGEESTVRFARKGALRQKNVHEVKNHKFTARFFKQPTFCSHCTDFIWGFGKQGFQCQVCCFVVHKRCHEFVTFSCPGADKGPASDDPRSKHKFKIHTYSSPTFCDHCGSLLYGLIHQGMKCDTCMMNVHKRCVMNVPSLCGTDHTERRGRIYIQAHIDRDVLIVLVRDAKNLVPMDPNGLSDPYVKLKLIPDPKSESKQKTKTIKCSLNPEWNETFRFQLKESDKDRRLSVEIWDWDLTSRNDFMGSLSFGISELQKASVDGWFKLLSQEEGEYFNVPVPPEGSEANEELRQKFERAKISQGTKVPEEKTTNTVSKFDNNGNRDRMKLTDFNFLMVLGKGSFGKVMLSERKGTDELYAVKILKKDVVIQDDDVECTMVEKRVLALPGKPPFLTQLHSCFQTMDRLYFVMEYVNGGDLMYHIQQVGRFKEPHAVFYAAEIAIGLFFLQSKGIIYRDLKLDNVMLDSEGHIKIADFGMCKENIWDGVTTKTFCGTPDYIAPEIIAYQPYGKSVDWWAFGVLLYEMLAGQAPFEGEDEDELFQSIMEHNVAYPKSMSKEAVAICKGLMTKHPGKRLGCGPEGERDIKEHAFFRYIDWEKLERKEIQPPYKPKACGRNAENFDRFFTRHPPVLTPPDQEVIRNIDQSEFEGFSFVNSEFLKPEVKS
Compound,IC50 (PKC α) [nM],Ratio α/β (PKC β II),IC50 (PKC β II; [1]) [nM],IC50 (PKC β II) [nM]
"3-[(3-chlorophenyl)amino]-4-[1-{3-(4-hydroxymethyl-imidazol-1-yl)propyl}-1H-indol-3-yl]-1H-pyrrole-2,5-dione and 3-[(3-chlorophenyl)amino]-4-[1-{3-(5-hydroxymethyl-imidazol-1-yl)propyl}-1H-indol-3-yl]-1H-pyrrole-2,5-dione [Example 2-60]",762,48,16,
"O=C1NC(=O)C(c2c[nH]c3ccccc23)=C1Nc1ccccc1 [Example 1-2, 3-(1H-indol-3-yl)-4-(phenylamino)-1H-pyrrole-2,5-dione]",7230,,223,
"Cc1cccc(NC2=C(c3c[nH]c4ccccc34)C(=O)NC2=O)c1 [Example 1-5, 3-(1H-indol-3-yl)-4-[(3-methylphenyl)amino]-1H-pyrrole-2,5-dione]",4920,33,151,
"O=C1NC(=O)C(c2c[nH]c3ccccc23)=C1Nc1cccc(Cl)c1 [Example 1-6, 3-[(3-chlorophenyl)amino]-4-(1H-indol-3-yl)-1H-pyrrole-2,5-dione]",6910,35,198,
"O=C1NC(=O)C(c2c[nH]c3ccccc23)=C1Nc1cccc(Br)c1 [Example 1-10, 3-[(3-bromophenyl)amino]-4-(1H-indol-3-yl)-1H-pyrrole-2,5-dione]",8340,37,226,
"O=C1NC(=O)C(c2c[nH]c3ccccc23)=C1Nc1cccc(F)c1 [Example 1-12, 3-[(3-fluorophenyl)amino]-4-(1H-indol-3-yl)-1H-pyrrole-2,5-dione]",7160,29,249,
"O=C1NC(=O)C(c2cn(CCO)c3ccccc23)=C1Nc1ccccc1 [Example 2-4, 3-[1-(2-hydroxyethyl)-1H-indol-3-yl]-4-(phenylamino)-1H-pyrrole-2,5-dione]",5800,79,73,
"CC(=O)OCCn1cc(C2=C(Nc3ccccc3)C(=O)NC2=O)c2ccccc21 [Example 2-7, 3-[1-(2-acetoxyethyl)-1H-indol-3-yl]-4-(phenylamino)-1H-pyrrole-2,5-dione]",3170,57,56,
"CN(C)CCN(C)CCn1cc(C2=C(Nc3ccccc3)C(=O)NC2=O)c2ccccc21 [Example 2-16, 3-[1-{2-[N-(2-dimethylaminoethyl)-N-methylamino]ethyl}-1H-indol-3-yl]-4-(phenylamino)-1H-pyrrole-2,5-dione]",6290,79,80,
"O=C1NC(=O)C(c2cn(CCCN3CCCCCC3)c3ccccc23)=C1Nc1ccccc1 [Example 2-23, 3-[1-(3-azacycloheptan-1-ylpropyl)-1H-indol-3-yl]-4-(phenylamino)-1H-pyrrole-2,5-dione]",,,,10

# Now from value to compound:
IC50 (PKC α) [nM],Ratio α/β (PKC β II),IC50 (PKC β II; [1]) [nM],IC50 (PKC β II) [nM],Compound
1620,54,30,,"O=C1NC(=O)C(c2cn(CCCO)c3ccccc23)=C1Nc1ccccc1 [Example 2-1, 3-[1-(3-hydroxypropyl)-1H-indol-3-yl]-4-(phenylamino)-1H-pyrrole-2,5-dione]"
2860,70,41,,"Cc1cccc(NC2=C(c3cn(CCCO)c4ccccc34)C(=O)NC2=O)c1 [Example 2-2, 3-[1-(3-hydroxypropyl)-1H-indol-3-yl]-4-[(3-methylphenyl)amino]-1H-pyrrole-2,5-dione]"
3900,85,46,,"O=C1NC(=O)C(c2cn(CCCO)c3ccccc23)=C1Nc1cccc(Cl)c1 [Example 2-3, 3-[(3-chlorophenyl)amino]-4-[1-(3-hydroxypropyl)-1H-indol-3-yl]-1H-pyrrole-2,5-dione]"
1830,61,30,,"O=C1NC(=O)C(c2cn(CCCCO)c3ccccc23)=C1Nc1ccccc1 [Example 2-5, 3-[1-(4-hydroxybutyl)-1H-indol-3-yl]-4-(phenylamino)-1H-pyrrole-2,5-dione]"
3310,55,60,,"O=C1NC(=O)C(c2cn(CCCO)c3ccccc23)=C1Nc1ccc(Cl)c(Cl)c1 [Example 2-6, 3-[(3,4-dichlorophenyl)amino]-4-[1-(3-hydroxypropyl)-1H-indol-3-yl]-1H-pyrrole-2,5-dione]"
460,38,12,,"CN(C)CCCn1cc(C2=C(Nc3ccccc3)C(=O)NC2=O)c2ccccc21 [Example 2-8, 3-[1-(3-dimethylaminopropyl)-1H-indol-3-yl]-4-(phenylamino)-1H-pyrrole-2,5-dione]"
2160,77,28,,"CN(C)CCn1cc(C2=C(Nc3ccccc3)C(=O)NC2=O)c2ccccc21 [Example 2-9, 3-[1-(2-dimethylaminoethyl)-1H-indol-3-yl]-4-(phenylamino)-1H-pyrrole-2,5-dione]"
730,49,15,,"CN(C)CCCCn1cc(C2=C(Nc3ccccc3)C(=O)NC2=O)c2ccccc21 [Example 2-10, 3-[1-(4-dimethylaminobutyl)-1H-indol-3-yl]-4-(phenylamino)-1H-pyrrole-2,5-dione]"
727,49,15,,"Cc1cccc(NC2=C(c3cn(CCCN(C)C)c4ccccc34)C(=O)NC2=O)c1 [Example 2-11, 3-[1-(3-dimethylaminopropyl)-1H-indol-3-yl]-4-[(3-methylphenyl)amino]-1H-pyrrole-2,5-dione]"
558,56,10,,"CN(C)CCCn1cc(C2=C(Nc3cccc(Cl)c3)C(=O)NC2=O)c2ccccc21 [Example 2-12, 3-[1-(3-dimethylaminopropyl)-1H-indol-3-yl]-4-[(3-chlorophenyl)amino]-1H-pyrrole-2,5-dione]"
1260,60,21,,"CCN(CC)CCCn1cc(C2=C(Nc3ccccc3)C(=O)NC2=O)c2ccccc21 [Example 2-13, 3-[1-(3-diethylaminopropyl)-1H-indol-3-yl]-4-(phenylamino)-1H-pyrrole-2,5-dione]"
2790,70,40,,"CN(C)CCN(C)CCCn1cc(C2=C(Nc3ccccc3)C(=O)NC2=O)c2ccccc21 [Example 2-14, 3-[1-{3-[N-(2-dimethylaminoethyl)-N-methylamino)propyl}-1H-indol-3-yl]-4-(phenylamino)-1H-pyrrole-2,5-dione]"
2680,77,35,,"CCN(CCCn1cc(C2=C(Nc3ccccc3)C(=O)NC2=O)c2ccccc21)CCOC [Example 2-15, 3-[1-{3-[N-ethyl-N-(2-methoxyethyl)amino]propyl}-1H-indol-3-yl]-4-(phenylamino)-1H-pyrrole-2,5-dione]"
4630,45,103,,"CCN(CCCn1cc(C2=C(Nc3ccccc3)C(=O)NC2=O)c2ccccc21)Cc1ccccc1 [Example 2-17, 3-[1-{3-(N-benzyl-N-ethylamino)propyl}-1H-indol-3-yl)-4-(phenylamino)-1H-pyrrole-2,5-dione]"

# Source: EP1120414A1, “DISUBSTITUTED MALEIMIDE COMPOUNDS AND MEDICINAL UTILIZATION THEREOF” (Japan Tobacco Inc., priority 1998, dated 2000)
